Source: patent publication US12589103B2, “Antimicrobial and antiviral effects of C2-C7 alkyl boronic acids” (CORNELL UNIVERSITY, priority 2019, dated 2026)

What was measured:
AIEC 541-1 and LF82 = assay: Adhesion and invasion of Caco-2 cells by AIEC; type: cell-based, E. coli; conditions: 30 mM, m.o.i 10, 3 h
Description: E. coli was cultured overnight in LB at 37° C. with shaking. Bacterial pellets were re-suspended in PBS before dilution in cell culture media±30 mM boronic acid or alkyl boronic acid to an m.o.i (multiplicity of infection) of 10. Caco-2 cells were infected with the diluted E. coli for 3 h at 37° C. before washing with PBS, then lysed with 1% Triton X-100. Serial dilutions of the lysates were made in PBS and plated on LB agar. The total number of colonies recovered was used to calculate the number of adherent bacteria. For invasion assays, cells were treated with gentamicin (100 μg mL−1) for one hour after initial infection and 3× wash with PBS to kill extracellular bacteria. Cells were then washed 3× after gentamicin treatment, lysed and plated as described above.

[1] = system: AIEC E. coli isolated from people (MDR and non-MDR strains); assay: Growth of MDR and non-MDR E. coli associated with Crohn's disease; type: cell-based; conditions: 40 mM, LB broth, 48 hrs
Description: The ability of C1-C3 alkyl boronic acids and BA to impact the growth of MDR E. coli isolated from people and dogs was evaluated using a temperature controlled 96-well multiplate incubator at 37° C. over 48 hrs. Growth in media (LB broth) with and without ABA C2-6 (40 mM) was monitored by readings at OD600 with the AUC of the growth curve calculated.

[2] = type: in vivo, mouse
Excerpt: This novel observation of an anti-inflammatory effect of EBA was corroborated in subsequent collaborative studies. […] These experiments confirm that EBA has an anti-inflammatory effect in two distinct murine models of microbially driven IBD.

[3] = system: cancer associated E. coli (HM288); assay: Growth in M9 media; conditions: EBA 10-40 mM
nF-κB = assay: E. coli induced nF-κB activation in HEK-Blue KD-TLR5 cells (SEAP reporter); type: cell-based; conditions: m.o.i 20, SEAP at 24 h
Description: HEK-Blue KD-TLR5 cells were used to detect the promotor activation of nF-κB by E. coli infection with or without boric or boronic acid treatment. nF-κB is the prototypical transcription factor for pro-inflammatory cytokines in epithelium. Briefly, cells were seeded in 96-well plates at a density of 5×10^4 cells per well. E. coli was diluted into fresh cell medium containing either NaCl (Control), boric or boronic acid at an m.o.i of 200 as 10× inocula, followed by addition of this inoculum (10 μl) into each well containing 100 μl of medium for a final m.o.i of 20. At 3 h post infection, the cell medium was carefully removed from each well, and replaced with 100 μl of fresh medium containing gentamycin (200 μg mL^−1). At 24 h post infection, the spent medium was collected, and centrifuged at 12,000 r.p.m. for 5 min to remove any particulate matter. QUANTI-Blue Kit (InvivoGen, San Diego, CA, USA) was used to detect the reporter protein SEAP (secreted alkaline phosphatase) following the manufacturer's instructions.

[4] = system: adherent invasive E. coli (AIEC, 541-1); assay: Growth in M9 media with ethanolamine or NH4Cl; conditions: BA, EBA 10-40 mM, PBA 15 mM, MBA 30 mM
[5] = system: AIEC and cancer associated E. coli; assay: Soft agar motility assay, E. coli; type: cell-based; conditions: 10 h, AIEC NC101, 541-1, cancer associated E. coli
Description: The ability of ABA C1-3 and BA to impact the motility of E. coli and Salmonella was evaluated using sloppy agar treated with and without BA and C1-C3 alkyl boronic acids. Motility is strongly linked to the virulence phenotype of these bacterial strains. E. coli was grown overnight at 37° C. in LB broth. Soft agar plates (1% tryptone, 0.5% NaCl, 0.25% agar) were prepared the day before the assay was carried out. Sterile NaCl (control), boric or boronic acid stock solution was added into the agar right before pouring the plates. The overnight cultures of E. coli were transferred (3 μl) on to the center of each plate, followed by incubation of the plates at 37° C. for 10 h. E. coli motility was quantified by measuring the diameter of the circular swarming area formed by the growing motile bacteria.

[6] = system: Feline Infectious Peritonitis Virus (FIPV) Black (TN-406); assay: FIPV replication and syncytium formation, immunofluorescence; type: cell-based, Feline Coronavirus type I; conditions: 10, 20, 30, 40 mM; Feline Lung cells, 18 h post-infection

In the case of `CCB(O)O` [EBA, ethyl boronic acid], the “adhesion and invasion of Caco-2 by AIEC” value (AIEC 541-1 and LF82) is reported as “suppress adhesion and invasion of Caco-2 by AIEC 541-1 and LF82”, the “growth inhibition of Crohn's disease associated AIEC, MDR and non-MDR” value [1] is reported as “more effective than BA over a wider range of AIEC, including MDR and non-MDR strains” and the “intestinal inflammation, fecal lipocalin and histopathology” value ([2]; SIHUMI colonized 11-10−/− mouse) is reported as “markedly reduced intestinal inflammation”. For the same molecule, the “adverse or pro-inflammatory effects” value ([2]; mouse, in vivo) was “no adverse or pro-inflammatory effects”, the “inhibition of growth of cancer associated E. coli HM288” value [3] was “effective” and the “induction of nF-κB by E. coli” value (nF-κB) was “reduced the induction of nF-κB by E. coli”. For the same molecule, the “inhibition of growth of AIEC 541-1” value [4] was “much more effective”, the “motility of E. coli” value [5] was “highly effective at blocking motility of AIEC and cancer associated E. coli” and the “degree of cytopathic effect” value (Caco-2 cells) was “EBA<BA<PBA”. The “replication and syncytium formation of FIPV” value [6] was “inhibited replication and syncytium formation of FIPV in infected cells”.
